Tested on: Chung model (spinal nerve ligation rats)
Assay: Tactile allodynia test after spinal nerve ligation (SNL, Chung model)
Type: in vivo, rat
Settings: 3, 10 and 30 mg/kg po in saline, administered 1 hour prior to the tactile allodynic test
Excerpt: SNL surgery: For spinal nerve ligation surgery, rats were anesthetized with isoflurane gas. […] The hair at the surgical site was clipped and disinfected with alcohol and betadine. Body temperature was maintained during surgery by using a heating pad. A skin incision (approximately 3 cm) was made on the dorsal midline, using the level of the iliac crests as the midpoint of the incision. At the mid-sacral region, on the left side of the vertebral column (in the sagittal plane), a #15 scalpel blade was used to cut the muscles close to the vertebral body until the blade hits the sacrum bone. A retractor system was used to expose the area from the sacro-iliac rim to about 2 cm of the lateral vertebral column. Using rongeurs, the facet joint was removed followed by the L6 transverse process. A glass hook was used to isolate and tightly ligate L5 and L6 with 6-0 silk suture. The muscle was then sutured using 4-0 silk suture. The skin was closed using wound clips.
Tactile allodynia test: The rats were placed on testing stands with screens under their feet. von Frey filaments eliciting various forces (up to 15 g) were applied to the paws, starting with a filament of 4.31 g and proceeding with alternating lighter and heavier filaments. The measured variable is the 50% withdrawal threshold (PWT) and is calculated from the up-down formula in Chaplan et al. 1994.

CCOc1ncccc1C1(NC(=O)N2CCN(C3CCN(C)CC3)CC2)C(=O)N(S(=O)(=O)c2ccc(OC)cc2OC)c2ccc(Cl)cc21 (stereo not shown) [compound 1]
50% paw withdrawal threshold (PWT): dose-dependently increased the withdrawal threshold

— US20110059983A1, “USE OF SUBSTITUTED OXINDOLE DERIVATIVES FOR THE TREATMENT AND PROPHYLAXIS OF PAIN” (Abbott GmbH & Co. KG, priority 2009, published 2011)
